Reference: PMC4520450, “Procyanidins Negatively Affect the Activity of the Phosphatases of Regenerating Liver” (PLoS ONE, 2015)
Each block holds one molecule with its values, some of them ahead of it.

Columns and labels:
PRL-3 [1] = biological target: T1, PRL-3 (Homo sapiens, UniProt O75365); experiment: DiFMUP phosphatase activity assay for PRLs; type: biochemical; conditions: for IC50: 50 nM PRL-3, 30 min preincubation, 25°C, 21 μM DiFMUP, mean ± SEM (n = 3–5), read-out: IC50 (Ki) PRL-3
T1 construct: His-TEV (cleaved yes); made in house
Procedure: Biochemical phosphatase activity measurements were carried out in the presence of different concentrations of various polyphenols, compounds 1–11 (Fig 1), using recombinant PRL-3 and 6,8-difluoro-4-methylumbelliferyl phosphate (DiFMUP) as a fluorogenic substrate (see the experimental procedures). We observed that the monomeric epicatechins EGC and EC inhibit PRL-3 only weakly, with a slightly better activity of EGC, which bears three hydroxyl groups at the B-ring. […] In general, as a basic structure activity-relationship the following trend was observed: a higher number of hydroxyl groups at the B-ring increased the activity slightly. […] The influence of the stereochemistry at C(2)–C(3) was studied by using GCG (the trans-epimer of EGCG).
(§1) Fig 2 Effect of polyphenolic compounds 8 (A), 9 (B), 10 (C) and 11 (D) on the phosphatase activity of PRL-1, PRL-2, PRL-3, PP1, and PP2A. Proteins were incubated for 30 min with 0–1000 μM of the corresponding procyandin 8–11. Phosphatase activity was measured in the presence of DiFMUP at 25°C using the concentration corresponding to the KM of each protein. The KM for PRLs was determined separately (PRL-3 = 21 μM, PRL-2 and PRL-1 = 24 μM). The KM for PP1 (91 μM) and for PP2A (100 μM) was taken from the literature. Protein concentrations are 50 nM for all PRLs and 2 mU for PP1 and 0.05 U for PP2A (see the Experimental Procedures). Phosphatase activity in the absence of inhibitors was set as 100%. Data represent means ± standard errors of the mean (n = 3–5).
(§2) DiFMUP assay for PRLs: In a final reaction volume of 100 μL the PRLs (50 nM final concentration) were incubated with decreasing concentrations of the inhibitory polyphenols for 30 minutes at 25°C. The buffer conditions were 108 mM TrisCl (pH 7.5), Triton 0.05% (v/v), DTT 27.0 mM, NaCl 811 mM. After the incubation time 20 μL DiFMUP (6,8-Difluoro-4-methylumbelliferyl phosphate) was added to reach a final concentration of 21 μM for PRL-3 and 24 μM for PRL-1 and PRL-2. On a Tecan safire2 (Tecan, Salzburg, Austria) plate reader dephosphorylation of the substrate to its fluorescent product was monitored by following the emission at 358 nm with excitation at 452 nm for 20 minutes. All measurements were done in triplicates, and the experiments were repeated at least three times. The slopes of the initial phases were obtained by linear regression of the data points. The normalized reaction rates were plotted versus the log of the inhibitor concentrations and the IC50 values were obtained by fitting the curves using the one site competition model of GraphPad Prism (GraphPad Software, Version 5). KM values were determined by measuring reaction kinetics of substrate dilution series. Initial velocities were plotted against DiFMUP concentration and the data was analyzed by Michaelis-Menten kinetics curve fitting of GraphPad Prism. A final DMSO content of 0.4% was maintained for the monomeric catechins. Due to the high water solubility of the procyanidins DMSO was not required and measurements were done in assay buffer only.

protein phosphatase-1 = biological target: protein phosphatase-1; parameters: method as in PMID 22260360; conditions: cited from earlier work
PP2A [2] = tested on: PP2A; parameters: method as in PMID 22260360; conditions: cited from earlier work
PP2A [3] = biological target: T2, PP2A (Homo sapiens, UniProt P67775); experiment: DiFMUP assay for PP2A; type: biochemical; conditions: 0.05 U PP2A, 30 min preincubation, 25°C, no BSA, mean ± SEM (n = 3–5), read-out: IC50 (Ki) PP2A
T2 construct: purified from human red blood cells; purchased Merck Millipore; host or cells: human red blood cells
Procedure: as §1
(§3) BSA, which is usually supplemented to the assay buffer for stabilizing the PPs was however excluded, as BSA is known to form complexes with polyphenolic compounds [40–42] and thus would decrease the concentrations of the inhibitor in the assay. […] In contrast, the phosphatase activity of PP2A was suppressed to a much lesser extent with weak (for trimer 9 and hexamer 11) and strong statistical significance (dimer 8 and tetramer 10). Thus our results corroborate the data reported previously.
Chemicals and vendors were as follows: Synthesis of Procyanidins (dimer to dodecamer) was done as previously reported. EGCG, EGC, ECG and EC were synthesized as previously reported or purchased from Sigma. (+)-Catechin and 3-(4,5-dimethylthiazol-2-yl)-2,5-diphenyltetrazolium bromide (MTT) were obtained from Sigma. 6,8-Difluoro-4-Methylumbelliferyl Phosphate (DiFMUP), propidium iodide and calcein AM were from lifescience technologies. Cell dissociation solution (10X) was purchased from amsbio. PP1c (recombinant from E. coli) was purchased from NewEngland Biolabs and PP2A (purified from human red blood cells, contains different subunits according to manufacturer) from Merck Millipore. Transwell plates (BRANDplates) and insert stripes for the migration assay were purchased from Brand GmbH. Black 96 well plates (96F Nunclon Delta) were purchased from Thermo Scientific. Transparent 96 well assay plates with UV transparent bottom were purchased from Corning Inc. Wound healing experiments were carried out with μ-dish 35 mm culture inserts, which were purchased from Ibidi.
DiFMUP assay for PP2A: In a final reaction volume of 100 μL PP2A (0.05 U final concentration, according to manufacturer’s instructions) were incubated with decreasing concentrations of the inhibitory polyphenols for 30 minutes at 25°C. The assay buffer contained 50 mM TrisCl (pH 7.5), 250 mM NaCl, 0.1 mM EDTA, 1 mM MnCl2, and 2 mM dithiothreitol (DTT). […] Monitoring of the fluorescent dephosphorylation product was monitored and data analyzed as described above.

PP1 = biological target: T3, PP1 (Oryctolagus cuniculus, UniProt P62139); experiment: DiFMUP assay for PP1; type: biochemical
T3 construct: purchased NewEngland Biolabs; host or cells: E. coli
Procedure: as §1, §3
DiFMUP assay for PP1: In a final reaction volume of 100 μL PP1c (2 mU final concentration, according to manufacturer’s instructions) were incubated with decreasing concentrations of the inhibitory polyphenols for 30 minutes at 25°C. The assay buffer contained 25 mM imidazole (pH 7.4), 1 mM dithiothreitol (DTT), and 50 mM NaCl. Bovine serum albumin (BSA) was excluded due to possible binding of the polyphenolic compounds. After the incubation time 20 μL DiFMUP (6,8-Difluoro-4-methylumbelliferyl phosphate) was added to reach a final concentration of 100 μM. Monitoring of the fluorescent dephosphorylation product was monitored and data analyzed as described above.

PRL-1 [4] = biological target: T4, PRL-1 (Homo sapiens, UniProt Q93096); experiment: DiFMUP phosphatase activity assay for PRLs; type: biochemical; conditions: Michaelis-Menten and Lineweaver-Burk analysis, DiFMUP hydrolysis
T4 construct: His-TEV (cleaved yes); made in house
T4 sequence (Q93096 1-173): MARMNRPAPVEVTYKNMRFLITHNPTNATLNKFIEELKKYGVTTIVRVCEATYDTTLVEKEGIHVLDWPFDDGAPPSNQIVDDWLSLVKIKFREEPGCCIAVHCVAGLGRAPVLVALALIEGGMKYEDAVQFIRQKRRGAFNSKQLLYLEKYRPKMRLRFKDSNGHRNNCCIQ

PRL-1 [5] = biological target: T4, PRL-1; experiment: DiFMUP phosphatase activity assay for PRLs; type: biochemical; conditions: 50 nM PRL-1, 30 min preincubation, 25°C, 24 μM DiFMUP; mean ± SEM (n = 3–5); read-out: IC50 (Ki) PRL-1
Procedure: as §1, §2

PRL-2 = biological target: T5, PRL-2 (Homo sapiens, UniProt Q12974); experiment: DiFMUP phosphatase activity assay for PRLs; type: biochemical; conditions: 50 nM PRL-2, 30 min preincubation, 25°C, 24 μM DiFMUP; mean ± SEM (n = 3–5); read-out: IC50 (Ki) PRL-2
T5 construct: His-TEV (cleaved yes); made in house
T5 sequence (Q12974 1-167): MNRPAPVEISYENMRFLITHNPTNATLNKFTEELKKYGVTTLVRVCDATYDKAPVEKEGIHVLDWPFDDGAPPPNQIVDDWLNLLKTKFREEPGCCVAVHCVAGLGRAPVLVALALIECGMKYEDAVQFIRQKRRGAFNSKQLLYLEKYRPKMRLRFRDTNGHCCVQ
Procedure: as §1, §2

PRL-3 [6] = biological target: T1, PRL-3; parameters: method as in PMID 20873564; conditions: cited from earlier work
Caco-2 cell model = tested on: Caco-2 cell model; parameters: method as in PMID 23885956; conditions: cited from earlier work
[7] = Michaelis-Menten and Lineweaver-Burk analysis, DiFMUP hydrolysis

T1 sequence (O75365 whole entry): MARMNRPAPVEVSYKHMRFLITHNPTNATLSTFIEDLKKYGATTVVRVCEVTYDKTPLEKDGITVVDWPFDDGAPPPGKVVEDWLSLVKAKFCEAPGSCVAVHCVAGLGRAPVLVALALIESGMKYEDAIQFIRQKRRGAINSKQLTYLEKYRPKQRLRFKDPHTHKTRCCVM
T3 sequence (P62139 whole entry): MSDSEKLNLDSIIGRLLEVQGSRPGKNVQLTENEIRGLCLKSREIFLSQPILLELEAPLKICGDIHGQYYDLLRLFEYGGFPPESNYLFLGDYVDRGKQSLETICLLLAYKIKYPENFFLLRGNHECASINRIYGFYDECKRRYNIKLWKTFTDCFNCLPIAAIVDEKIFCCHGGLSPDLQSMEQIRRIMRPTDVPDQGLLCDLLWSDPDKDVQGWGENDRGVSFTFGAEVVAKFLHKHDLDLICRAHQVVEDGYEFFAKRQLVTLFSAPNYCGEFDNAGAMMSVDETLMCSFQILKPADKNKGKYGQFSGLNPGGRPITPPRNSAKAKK
T2 sequence (P67775 whole entry): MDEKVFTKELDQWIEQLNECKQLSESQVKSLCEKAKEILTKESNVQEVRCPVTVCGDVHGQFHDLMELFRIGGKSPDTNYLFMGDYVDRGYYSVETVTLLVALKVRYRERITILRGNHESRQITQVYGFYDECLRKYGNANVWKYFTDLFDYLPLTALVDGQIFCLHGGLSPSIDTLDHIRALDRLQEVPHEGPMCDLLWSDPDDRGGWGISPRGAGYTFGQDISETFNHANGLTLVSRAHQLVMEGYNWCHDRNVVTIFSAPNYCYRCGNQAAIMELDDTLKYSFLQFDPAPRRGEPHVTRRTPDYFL
T2 sequence (P30153 2-589 partner limits assumed): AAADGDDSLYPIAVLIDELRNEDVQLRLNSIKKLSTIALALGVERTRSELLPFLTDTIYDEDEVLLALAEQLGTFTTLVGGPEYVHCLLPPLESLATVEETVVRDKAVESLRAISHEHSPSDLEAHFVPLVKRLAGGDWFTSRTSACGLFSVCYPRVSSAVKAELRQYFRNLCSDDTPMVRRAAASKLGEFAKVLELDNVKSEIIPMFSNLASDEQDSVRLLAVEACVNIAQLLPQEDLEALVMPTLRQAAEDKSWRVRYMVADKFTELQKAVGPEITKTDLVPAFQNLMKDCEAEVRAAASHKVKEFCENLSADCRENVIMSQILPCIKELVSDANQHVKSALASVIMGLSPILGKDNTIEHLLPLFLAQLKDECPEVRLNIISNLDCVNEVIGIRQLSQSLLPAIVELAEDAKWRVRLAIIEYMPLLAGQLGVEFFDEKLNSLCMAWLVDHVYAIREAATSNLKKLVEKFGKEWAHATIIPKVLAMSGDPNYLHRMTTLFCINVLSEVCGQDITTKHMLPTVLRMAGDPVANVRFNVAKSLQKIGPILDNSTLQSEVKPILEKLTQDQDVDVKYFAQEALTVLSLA

- increase in PRL-3 inhibition of 3-gallate ester compared to non-gallate (2 vs 1, 4 vs 3) (PRL-3 [1]): about two-fold increase
- IC50 (PRL-3 [1]): 121 ± 5.7 µM
Compound: O=C(O[C@@H]1Cc2c(O)cc(O)cc2O[C@@H]1c1cc(O)c(O)c(O)c1)c1cc(O)c(O)c(O)c1 [EGCG (4)]
- IC50 (protein phosphatase-1): 1.35 µM
- activity toward PP2A relative to PP1 (PP2A [2]): ten-fold lower activity

- IC50 (PRL-3 [1]): 16.3 ± 2.3 µM
- type of inhibition, PRL-3 (PRL-3 [1]; [7]): noncompetitive
- IC50 (PP2A [3]): 77.9 ± 10.7 µM
- IC50 (PP1; 2 mU PP1c, 30 min preincubation, 25°C, DiFMUP, no BSA, mean ± SEM (n = 3–5), read-out: IC50 (Ki) PP1): 13.8 ± 2.9 µM
- type of inhibition, PP1 (PP1; [7]): noncompetitive
- type of inhibition, PRL-1 (PRL-1 [4]): noncompetitive
- IC50 (PRL-1 [5]): 2.2 ± 1.1 µM
- IC50 (PRL-2): 13.4 ± 2.5 µM
Compound: Oc1cc(O)c2c(c1)O[C@H](c1ccc(O)c(O)c1)[C@@H](O)[C@@H]2c1c(O)cc(O)c2c1O[C@H](c1ccc(O)c(O)c1)[C@@H](O)[C@@H]2c1c(O)cc(O)c2c1O[C@H](c1ccc(O)c(O)c1)[C@@H](O)[C@@H]2c1c(O)cc(O)c2c1O[C@H](c1ccc(O)c(O)c1)[C@@H](O)C2 [Tetramer (10)]

Compound: O=c1c(O)c(-c2ccc(O)c(O)c2)oc2c(O[C@@H]3O[C@H](CO)[C@@H](O)[C@H](O)[C@H]3O)c(O)cc(O)c12 [gossypin]
- PRL-3 phosphatase inhibition in vitro (PRL-3 [6]): moderate phosphatase inhibition

Compound: O=c1c(O)c(-c2cc(O)c(O)c(O)c2)oc2cc(O)cc(O)c12 [myricetin]
- PRL-3 phosphatase inhibition in vitro (PRL-3 [6]): moderate phosphatase inhibition

Compound: Oc1cc(O)c2c(c1)O[C@H](c1ccc(O)c(O)c1)[C@H](O)[C@H]2c1c(O)cc(O)c2c1O[C@H](c1ccc(O)c(O)c1)[C@H](O)[C@H]2c1c(O)cc(O)c2c1O[C@H](c1ccc(O)c(O)c1)[C@H](O)C2 [procyanidin C1, reference compound]
- permeation (Caco-2 cell model): no permeation was detected
